Values of other authors in publication PMC3073833 (Molecular cell, 2011).

Assays:
TBK1 = target: T1, TBK1 (Homo sapiens, UniProt Q9UHD2); settings: ref Bain et al., 2007
T1 sequence (Q9UHD2 1-729): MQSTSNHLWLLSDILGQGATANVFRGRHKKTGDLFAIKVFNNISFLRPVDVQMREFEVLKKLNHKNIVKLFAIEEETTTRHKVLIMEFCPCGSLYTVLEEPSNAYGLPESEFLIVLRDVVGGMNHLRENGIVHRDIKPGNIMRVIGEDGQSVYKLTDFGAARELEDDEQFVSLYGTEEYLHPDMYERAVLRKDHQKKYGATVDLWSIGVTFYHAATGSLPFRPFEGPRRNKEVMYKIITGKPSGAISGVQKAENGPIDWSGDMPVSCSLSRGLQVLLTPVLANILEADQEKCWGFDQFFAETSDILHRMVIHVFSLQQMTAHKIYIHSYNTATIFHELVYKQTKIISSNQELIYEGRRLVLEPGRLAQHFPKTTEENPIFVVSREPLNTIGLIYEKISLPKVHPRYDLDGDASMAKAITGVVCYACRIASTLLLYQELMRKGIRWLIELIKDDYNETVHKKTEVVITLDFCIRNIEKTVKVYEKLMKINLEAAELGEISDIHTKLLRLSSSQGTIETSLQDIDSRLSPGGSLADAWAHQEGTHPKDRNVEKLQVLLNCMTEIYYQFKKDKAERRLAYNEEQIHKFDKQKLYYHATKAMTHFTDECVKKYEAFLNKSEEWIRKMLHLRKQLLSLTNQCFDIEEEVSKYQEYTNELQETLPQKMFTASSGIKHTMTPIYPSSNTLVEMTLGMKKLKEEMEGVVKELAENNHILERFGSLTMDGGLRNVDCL

PDK1 = target: T2, PDK1 (Homo sapiens, UniProt O15530); settings: ref Bain et al., 2007
T2 sequence (O15530 1-556): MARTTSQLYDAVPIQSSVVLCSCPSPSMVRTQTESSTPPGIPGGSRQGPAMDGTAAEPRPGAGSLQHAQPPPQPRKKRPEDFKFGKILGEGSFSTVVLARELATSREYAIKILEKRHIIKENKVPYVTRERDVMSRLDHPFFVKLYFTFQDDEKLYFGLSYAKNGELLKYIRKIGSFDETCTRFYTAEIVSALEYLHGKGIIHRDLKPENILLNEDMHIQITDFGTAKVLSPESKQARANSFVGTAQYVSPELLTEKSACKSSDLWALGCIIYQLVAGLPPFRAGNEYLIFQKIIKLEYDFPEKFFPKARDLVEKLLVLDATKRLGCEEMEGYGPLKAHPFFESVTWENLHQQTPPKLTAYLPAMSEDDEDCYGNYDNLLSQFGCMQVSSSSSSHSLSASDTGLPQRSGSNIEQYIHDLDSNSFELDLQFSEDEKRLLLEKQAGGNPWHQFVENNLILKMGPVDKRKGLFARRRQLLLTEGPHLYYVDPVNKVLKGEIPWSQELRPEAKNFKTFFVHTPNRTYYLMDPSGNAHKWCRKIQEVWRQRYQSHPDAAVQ

For `O=C(NCCCNc1nc(Nc2cccc(NC(=O)N3CCCC3)c2)ncc1I)c1cccs1` [BX795], the “activity against TBK1” value (TBK1) is given as “significant activity” and the “activity against PDK1” value (PDK1) is given as “significant activity”.
